Assay results taken from patent publication US7897781B2, “Cold menthol receptor-1 antagonists” (Janssen Pharmaceutica NV, priority 2006, dated 2011).
Where “and” joins values, the source holds several entries; their conditions need not be identical. Equal entries are not always repeated.

Target: T1, canine TRPM8 (Canis lupus familiaris, UniProt Q1A7N1)
T1 construct: expressed in transfected cells
Experiment: In vitro canine TRPM8 functional assay (Ca2+-sensitive dye, icilin activation; Table 4 TRPM8 Screening)
Format: cell-based
Details: HEK293 cells expressing canine TRPM8, icilin activation; for % I (1 μM): compound at 1 μM; for % I (0.5 μM) / inhibition at 0.5 µM: compound at 0.5 μM; for inhibition at 0.5 µM: read-out: % I (0.5 μM)
Experimental: The functional activity of compounds of Formula (I) was determined by measuring changes in intracellular calcium concentration using a Ca^2+-sensitive fluorescent dye. The changes in fluorescent signal were monitored by a fluorescence plate reader, either a FLIPR™ (Molecular Devices) or FDSS (Hamamatsu).
HEK293 cells stably expressing canine TRPM8 were routinely grown as monolayers in Dulbecco's minimum essential medium supplemented with 10% FBS, 1 mM L-glutamine, 100 units/mL penicillin, 100 ug/mL streptomycin and 400 μg/mL G418. Cells were maintained in 5% CO2 at 37° C. At 24 hrs prior to assay, cells were seeded in clear-base poly-D-lysine coated 384-well plates (BD Biosciences, NJ, USA) at a density of 5,000 cells per well in culture medium and grown overnight in 5% CO2 at 37° C. On assay day, growth media was removed and cells were loaded with Calcium 3 Dye (Molecular Devices) for 35 min at 37° C., under 5% CO2 and then for 25 min at room temperature and atmosphere. Subsequently, cells were tested for agonist-induced increases in intracellular Ca^2+ levels using FLIPR™ or FDSS. Cells were challenged with a compound of Formula (I) (at varying concentrations) and intracellular Ca^2+ was measured for 5 min prior to the addition of icilin to all wells to achieve a final concentration which produces approximately an 80% maximal response.
Basal FI was subtracted prior to normalizing data to percent of maximal response. Curves were generated using the average of quadruplicate wells for each data point, were analyzed using nonlinear regression of either sigmoidal dose response or sigmoidal dose response (variable slope). Finally, the EC50 and IC50 values were calculated with the best-fit dose curve determined by GraphPad Prism.

T1 sequence (Q1A7N1 1-1104): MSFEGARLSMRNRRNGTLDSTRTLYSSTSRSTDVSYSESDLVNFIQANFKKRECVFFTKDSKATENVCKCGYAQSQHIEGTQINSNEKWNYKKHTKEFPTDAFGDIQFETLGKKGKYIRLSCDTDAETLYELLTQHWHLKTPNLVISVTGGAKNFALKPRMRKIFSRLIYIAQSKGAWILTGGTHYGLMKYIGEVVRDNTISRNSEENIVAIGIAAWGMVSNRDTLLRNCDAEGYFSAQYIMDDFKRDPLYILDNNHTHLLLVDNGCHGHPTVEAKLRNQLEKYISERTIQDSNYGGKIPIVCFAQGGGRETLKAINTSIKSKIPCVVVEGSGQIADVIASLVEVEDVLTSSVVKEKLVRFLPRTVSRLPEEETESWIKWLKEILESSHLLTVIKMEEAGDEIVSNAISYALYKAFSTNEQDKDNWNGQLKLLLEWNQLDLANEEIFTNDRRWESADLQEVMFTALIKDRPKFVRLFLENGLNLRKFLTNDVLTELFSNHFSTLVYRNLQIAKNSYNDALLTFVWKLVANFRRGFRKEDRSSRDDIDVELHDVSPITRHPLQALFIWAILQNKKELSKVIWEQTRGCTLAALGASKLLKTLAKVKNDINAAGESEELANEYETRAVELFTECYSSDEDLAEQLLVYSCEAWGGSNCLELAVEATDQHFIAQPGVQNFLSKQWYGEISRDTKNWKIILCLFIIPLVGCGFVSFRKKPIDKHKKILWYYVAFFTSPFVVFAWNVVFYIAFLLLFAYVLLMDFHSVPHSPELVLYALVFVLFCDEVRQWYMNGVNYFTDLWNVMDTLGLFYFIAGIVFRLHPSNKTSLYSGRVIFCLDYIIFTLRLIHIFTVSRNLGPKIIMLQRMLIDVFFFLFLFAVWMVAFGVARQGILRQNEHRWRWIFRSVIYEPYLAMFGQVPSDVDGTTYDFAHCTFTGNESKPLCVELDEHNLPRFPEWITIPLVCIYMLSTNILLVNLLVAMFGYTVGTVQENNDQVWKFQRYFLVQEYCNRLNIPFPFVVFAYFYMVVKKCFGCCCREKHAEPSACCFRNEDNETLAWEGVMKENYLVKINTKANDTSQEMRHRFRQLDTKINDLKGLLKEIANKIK

CCOP(=O)(OCC)C(Cc1cccc(OC(F)(F)F)c1)c1sc2ccccc2c1C (centres unmarked) [Cpd 57]
% I (1 μM): 100%

CC(C)OP(=O)(OC(C)C)C(Cc1cccc(O)c1)c1sc2ccccc2c1Br (centres unmarked) [Cpd 325]
% I (0.5 μM): 97%

CCOP(=O)(OCC)C(Cc1cc2c(cc1Cl)OCO2)c1cc2ccccc2s1 (centres unmarked) [Cpd 112]
% I (1 μM): 42%

CCOP(=O)(OCC)C(Cc1ccccc1Br)c1sc2ccccc2c1C (centres unmarked) [Cpd 66]
% I (1 μM): 100%

CC(C)OP(=O)(OC(C)C)C(Cc1ccc(O)c(F)c1)c1sc2ccccc2c1Br (centres unmarked) [Cpd 227]
% I (0.5 μM): 52%

CCOP(=O)(OCC)C(Cc1ccc2ccccc2c1)c1sc2ccccc2c1C (centres unmarked) [Cpd 46]
% I (1 μM): 99%

CC(C)OP(=O)(OC(C)C)C(Cc1ccc(F)c(C(F)(F)F)c1)c1c(Br)c2ccccc2n1C(=O)OC(C)(C)C (centres unmarked) [Cpd 327, 3-Bromo-2-[1-(diisopropoxy-phosphoryl)-2-(4-fluoro-3-trifluoromethyl-phenyl)-ethyl]-indole-1-carboxylic acid tert-butyl ester]
inhibition at 0.5 µM: 44%

CCOP(=O)(OCC)C(Cc1ccccc1C)c1cc2ccccc2s1 (centres unmarked) [Cpd 89]
% I (1 μM): 91%
% I (5 μM) (compound at 5 μM): 100%

[2-(3,4-Difluoro-phenyl)-1-(3-methyl-benzo[b]thiophene-2-yl)-ethyl]-[3-(4-methoxy-phenyl)-propyl]-phosphonic acid ethyl ester [Cpd 136]
% I (1 μM): 91%

CC(C)OP(=O)(OC(C)C)C(Cc1cc(C(F)(F)F)cc(C(F)(F)F)c1)c1sc2ccccc2c1Cl (racemic) [Cpd 171]
% I (0.5 μM): 95%

CCOP(=O)(OCC)C(Cc1cc(F)cc(F)c1Cl)c1sc2ccccc2c1C (centres unmarked) [Cpd 28]
% I (1 μM): 100%

CCOP(=O)(OCC)C(Cc1cccc(C(F)(F)F)c1Cl)c1sc2ccccc2c1C (centres unmarked) [Cpd 81]
% I (1 μM): 100% and 87%

CC(C)OP(=O)(OC(C)C)C(Cc1cc(C(F)(F)F)cc(Cl)c1F)c1cc2ccccc2s1 (centres unmarked) [Cpd 126]
% I (1 μM): 100%

CCOP(=O)(OCC)C(Cc1ccccc1C(F)(F)F)c1sc2ccccc2c1Cl (racemic) [Cpd 279]
% I (0.5 μM): 97%

CCOP(=O)(OCC)C(Cc1ccc(OC)c(C(F)(F)F)c1)c1sc2ccccc2c1Cl (racemic) [Cpd 292]
% I (0.5 μM): 99%

CCOP(=O)(OCC)C(Cc1cc(O)cc(O)c1)c1sc2ccccc2c1Br (centres unmarked) [Cpd 322]
% I (0.5 μM): 45%

CCOP(=O)(OCC)C(Cc1ccc(F)c(F)c1)c1cc2ccccc2o1 (centres unmarked) [Cpd 265]
% I (1 μM): 95%

CCOP(=O)(OCC)C(Cc1ccccc1OC(F)(F)F)c1sc2ccccc2c1C (centres unmarked) [Cpd 61]
% I (1 μM): 100%

CCOP(=O)(OCC)C(Cc1ccc(O)c(C(F)(F)F)c1)c1sc2ccccc2c1Br (centres unmarked) [Cpd 233]
% I (0.5 μM): 70%

CCOP(=O)(OCC)C(Cc1c(F)c(F)c(O)c(F)c1F)c1sc2ccccc2c1Br (racemic) [Cpd 228]
% I (0.5 μM): 94%

(R)-[1-(3-Bromo-benzo[b]thiophen-2-yl)-2-(4-trifluoromethoxy-phenyl)ethyl]-phosphonic acid diisopropyl ester [Cpd 237]
% I (0.5 μM): 96% and 70%

CC(C)OP(=O)(OC(C)C)C(Cc1ccc(F)c(F)c1)c1sc2ccccc2c1C(C)C (centres unmarked) [Cpd 19]
% I (1 μM): 100%

CCOP(=O)(OCC)C(Cc1cc(C(F)(F)F)cc(C(F)(F)F)c1)c1cc2ccccc2s1 (centres unmarked) [Cpd 96]
% I (1 μM): 92%

CC(C)OP(=O)(OC(C)C)C(Cc1ccc(F)c(C(F)(F)F)c1)c1c(Br)c2ccccc2n1S(C)(=O)=O (centres unmarked) [Cpd 330, [1-(3-Bromo-1-methanesulfonyl-1H-indol-2-yl)-2-(4-fluoro-3-trifluoromethyl-phenyl)-ethyl]-phosphonic acid diisopropyl ester]
inhibition at 0.5 µM: 103%

CCOP(=O)(OCC)C(Cc1ccc(F)c(F)c1)c1sc2ccccc2c1-c1ccccc1F (racemic) [Cpd 216]
% I (0.5 μM): 100%

CCOP(=O)(OCC)C(Cc1ccc(O)cc1)c1sc2ccccc2c1Br (centres unmarked) [Cpd 324]
% I (0.5 μM): 54%

CCOP(=O)(OCC)C(Cc1ccccc1)c1cc2ccccc2s1 (centres unmarked) [Cpd 74]
% I (1 μM): 92%

CC(C)OP(=O)(OC(C)C)C(Cc1ccc(F)cc1)c1sc2cc(Br)ccc2c1Br (centres unmarked) [Cpd 200]
% I (1 μM): 81%
